Like-named read-outs stand apart in the source and are kept apart here.
Assays:
threespine stickleback = test system: threespine stickleback; parameters: species or system Gasterosteus aculeatus; details: in vivo
stickleback [1] = experiment: Exploratory test with azidotrimethylsilicane; assay type: in vivo; details: relative to other azides
[2] = test system: threespine stickleback and sockeye salmon; details: increases in temperature
Description: Delineation bioassays determined primarily the LC50 and LC100 of stickleback and the LC0 and LC50 of salmonids.
Stickleback (mean length, 44 mm) and sockeye (mean length, 74 mm) in artesian well water were treated with various concentrations of potassium azide in laboratory facilities for 96 hours at 5, 10 and 15 degrees Celsius to determine approximate selectivity and safety indices.

sockeye salmon = test system: sockeye salmon
Description: Fingerling sockeye salmon in artesian water were exposed to a concentration of 5 mg/l of potassium azide for 24 hours at a temperature of 15 degrees Celsius.
Ten sockeye (length range, 55-93 mm) were assigned to each of four aquaria (load, 2.7 g/l) and concentrations of chemicals were added as indicated in Table 8. The time of mortality was noted.

stickleback [3] = test system: stickleback
Description: For water with different chemistry and for application of different concentrations of the azide the delay time of application of deactivator could vary.

sockeye [4] = details: in vivo
cutthroat trout = experiment: Toxicity to cutthroat trout, 96-hour bioassays; assay type: in vivo, Salmo clarki
[5] = test system: freshwater races of rainbow trout; experiment: Toxicity to rainbow trout, 96-hour bioassays; assay type: in vivo, Salmo gairdneri
redside shiner = experiment: Toxicity to redside shiner, 96-hour bioassays; assay type: in vivo, Richardsonius balteatus
stickleback [6] = test system: stickleback; remark: listed apart in the source
Description: For field applications the concentration of NaN3 or N3 -- would vary with water quality--mainly with regard to dissolved solid and hydrogen ion concentrations. […] For the treatment of rivers and shorelines of lakes the concentrations of azide that would be used would be those that would kill stickleback in 12 to 24 hours.

rats [7] = experiment: Lowest published lethal oral dose in rats (1974 Toxic Substances List); assay type: in vivo, rat; details: water treated at 1 mg/l of azide
Description: It would be impossible for a bird or mammal to drink enough water when treated at 1 mg/l of azide for the azide to harm the animal. To drink a lethal dose, an animal would have to drink 46 times its weight in water. Nevertheless safety precautions should be taken when handling the chemical.

chinook salmon = experiment: Example 4: LC0 of chinook, artesian well water, 96-hour bioassays; assay type: in vivo, O. tschawytscha; details: for LC0 of chinook: artesian well water, 96-hour
Excerpt: The desirable fishes tested in bioassays included the sockeye salmon (Oncorhynchus nerka), chinook salmon, (O. tschawytscha) and the steelhead, a sea-run variety of rainbow trout (Salmo gairdneri).

[8] = Example 5: survival/recovery of sockeye after exposure to sodium azide, 20-day bioassays; assay type: in vivo, Oncorhynchus nerka; details: sockeye salmon, in vivo; exposed for 16 hours or less; end of 20-day bioassays
Excerpt: (§1) Stickleback subjected to the same test conditions experienced almost 100% mortality.

sockeye [9] = experiment: as above; assay type: in vivo, Oncorhynchus nerka; details: exposed for 16 hours or less
Excerpt: as §1

rats [10] = details: cited from earlier work
bridgelip sucker = experiment: Toxicity to bridgelip sucker, 96-hour bioassays; assay type: in vivo, Catastomus columbianus
torrent sculpin = experiment: Toxicity to torrent sculpin, 96-hour bioassays; assay type: in vivo, Cottus rotheus
speckled dace = experiment: Toxicity to speckled dace, 96-hour bioassays; assay type: in vivo, Rhinichthys cataractae
[11] = up to 5.0 mg/l in artesian well water

[Cl][Sn][Cl] [stannous chloride]
toxicity of azide in standing water and duration of its potency (threespine stickleback): can be controlled

C[Si](C)(C)N=[N+]=[N-] [azidotrimethylsilicane]
biological activity/potency and selectivity of the azide radical in organic compounds (stickleback [1]): equally biologically active or potent and equally selective

potassium azide
effect of temperature on toxicity [2]: marked increase in the toxicity

calcium chloride
toxicity of azide in standing water and duration of its potency (threespine stickleback): can be controlled
Survival time (sockeye salmon; 3.5 mg/l calcium chloride (1 equivalent weight) after 24 h at 5 mg/l potassium azide): 90 h
Survival time (sockeye salmon; 7.0 mg/l calcium chloride (2 equivalent weights) after 24 h at 5 mg/l potassium azide): 112 h
Survival time (sockeye salmon; 14.0 mg/l calcium chloride (4 equivalent weights) after 24 h at 5 mg/l potassium azide): 148 h
effect on mortality of sockeye exposed to 5 mg/l potassium azide for 24 hours (sockeye salmon; 1, 2, 4, and 8 equivalent weights): delayed the mortality
survival of all sockeye in the azide (sockeye salmon; 8 equivalents of calcium chloride): complete survival of all sockeye
Survival time (sockeye salmon; […] calcium chloride (8 equivalent weights) after 24 h at 5 mg/l potassium azide): Did not die
delay in application of calcium chloride necessary for maximizing the kill of stickleback (stickleback [3]; 5 mg/l potassium azide, artesian water): 2 h
death time for stickleback (stickleback [3]; calcium chloride and potassium azide added about simultaneously): about doubled

[Ca+2].[I-].[I-] [calcium iodide]
azide neutralizing effectiveness (threespine stickleback): neutralized azide more effectively than calcium chloride
toxicity of azide in standing water and duration of its potency (threespine stickleback): can be controlled

[N-]=[N+]=[N-] [sodium azide]
mean times of death at about equal equivalents (sockeye [4]): about equal mean times of death
toxicity (cutthroat trout; up to 1.5 mg/l in river water): not toxic
toxicity (cutthroat trout; [11]): not toxic
toxicity ([5]; up to 1.5 mg/l in river water): not toxic
toxicity [5, 11]: not toxic
toxicity (redside shiner; up to 1.5 mg/l in river water): not toxic
toxicity (redside shiner; [11]): not toxic
toxicity to fish in river water as opposed to artesian water (stickleback [6]; allowing for the 0.8 differential between sodium and potassium azide): about 5 times
LC100 of stickleback (stickleback [6]; river water, 96-hour bioassays, 15 degrees Celsius): 0.34 mg/L
amount of water to drink for a lethal dose (rats [7]): 46 times its weight
LC0 of chinook salmon compared with sockeye and steelhead (chinook salmon; allowing for the 0.8 differential): substantially greater than that of sockeye and steelhead
LC0 of chinook (chinook salmon; 5° C.): 10.0 mg/L
LC0 of chinook (chinook salmon; 10° C.): 8.0 mg/L
LC0 of chinook (chinook salmon; 15° C.): 8.0 mg/L
survival at 480 h [8]: 100%
recovery of sockeye from ill effects (sockeye [9]): complete recovered from any ill effects
LDL0, oral (lowest published lethal dose) (rats [10]): 46 mg for 2 kg of rat
toxicity (bridgelip sucker; up to 1.5 mg/l in river water): not toxic
toxicity (bridgelip sucker; [11]): not toxic
toxicity (torrent sculpin; up to 1.5 mg/l in river water): not toxic
toxicity (torrent sculpin; [11]): not toxic
toxicity (speckled dace; up to 1.5 mg/l in river water): not toxic
toxicity (speckled dace; [11]): not toxic

— patent US4221782A (priority 1978, dated 1980)
